In brackets after ≈: the same amount, converted by molar mass. Several values for one entry are separate records, joined by “and”; a condition that tells them apart may be missing. Equal entries are not always repeated. Where two headings read alike, the source gives them in different places.
What was measured:
[1] = test system: Staphylococcus aureus; test: Chequerboard analysis / MIC against Staphylococcus aureus (MRSA cells); format: cell-based
Experimental: Chequerboard analysis was used to determine whether compounds could be combined to decrease the MIC for Staphylococcus aureus, as compared to each individual compound. In the present experiments, combinations of zingerone plus gentamicin, zingerone plus vancomycin, and zingerone plus cefotaxime were tested. For this testing, 96 well plates were inoculated Staphylococcus aureus, and then incubated with the test compounds for 24 hours at 37° C. For zingerone, additions were made at […], 12.5, and 25 mg/ml. For gentamicin, additions were made at 0, 4, 8, 16, 32, 64, 128, and 256 μg/ml. For vancomycin, additions were made at 0, 4, 8, 16, 32, 64, 128, and 256 μg/ml. For cefotaxime, additions were made at 0, 8, 16, 32, 64, 128, 256, and 512 μg/ml. MRSA cells (methicillin-resistant Staphylococcus aureus) were introduced in Mueller Hinton media with 2% NaCl. 10^8 cells per ml were utilised. The FICI index was used to quantify the interaction of the compounds interact employing the following equation: FICI=(MICA^combi/MICA^alone)+ (MICB^combi/MICB^alone). A FICI of ≤0.5 was designated as synergy, and a FICI of >4.0 was defined as antagonism. A FICI of 0.5 to 1.0 was deemed as a significant improvement although not synergistic.

[2] = EFSA 2016; 14 (8): 4557; cited from earlier work
[3] = cited from earlier work
[4] = test system: liver inflammation; settings: peritonitis mouse model; cited from earlier work
[5] = test system: Pseudomonas aeruginosa; settings: cited from earlier work
[6] = individual compound, 24 hours at 37° C., MRSA in Mueller Hinton media with 2% NaCl

CO/N=C(\C(=O)N[C@@H]1C(=O)N2C(C(=O)O)=C(COC(C)=O)CS[C@H]12)c1csc(N)n1 [Cefotaxime, reference compound]
MIC ([1]; Staphylococcus aureus, individual compound, 24 hours at 37° C., MRSA in Mueller Hinton media with 2% NaCl, read-out: MIC): > 512 µg/mL

Gentamicin [reference compound]
MIC ([1]; gentamicin in combination with zingerone): 4 µg/mL
MIC [1, 6]: 16 µg/mL

CN[C@H](CC(C)C)C(=O)N[C@H]1C(=O)N[C@@H](CC(N)=O)C(=O)N[C@H]2C(=O)N[C@H]3C(=O)N[C@H](C(=O)N[C@H](C(=O)O)c4cc(O)cc(O)c4-c4cc3ccc4O)[C@H](O)c3ccc(c(Cl)c3)Oc3cc2cc(c3O[C@@H]2O[C@H](CO)[C@@H](O)[C@H](O)[C@H]2O[C@H]2C[C@](C)(N)[C@H](O)[C@H](C)O2)Oc2ccc(cc2Cl)[C@H]1O [Vancomycin, reference compound]
MIC ([1]; Staphylococcus aureus, MRSA, 24 h): 8 µg/mL

COc1cc(CCC(C)=O)ccc1O [Zingerone]
No Observed Adverse Effects (NOAEL) dose [2]: 128 mg/kg/day
Log P ([3]; FoodB compounds database): 2.02 and 1.92
water solubility ([3]; FoodB compounds database): 570 µg/mL (≈ 2930 µM)
solubility (in words) ([3]; reported): sparingly soluble in water
effect on liver inflammation [4]: anti-inflammatory effect
MIC [1, 6]: 25 mg/g
MIC ([1]; zingerone in combination with cefotaxime): 25 mg/g
MIC ([1]; zingerone in combination with gentamicin): 6.25 mg/g
MIC ([1]; zingerone in combination with vancomycin): 12.5 mg/g
effect on susceptibility of cells to antibiotics [5]: enhance the susceptibility

Source: patent US20240351967A1, “METHODS OF PREPARATION OF ZINGERONE, COMPOSITIONS COMPRISING ZINGERONE, AND USES THEREFOR” (Evithe Limited, priority 2021, published 2024)
